Patent US4585784A, “Pyrrole-2-acetylamino acid derivative compounds” (McNeilab, Inc., priority 1983, dated 1986)
Like-named read-outs stand apart in the source and are kept apart here.

Assays:
[1] = rat adjuvant arthritis test (antiinflammatory activity); format: in vivo, Female Wistar/Lewis rats; conditions: oral, daily for 4 days, inhibition of noninjected hind paw volume vs controls, compounds given as aqueous solutions of sodium salts
Description: The antiinflammatory activity of the compounds of the instant invention was measured using the rat adjuvant arthritis test [S. Wong, J. F. Gardocki and T. P. Pruss, J. Pharmacol. and Exp. Ther. 185, 127 (1973)]. Female Wistar/Lewis rats were given an injection of heat-killed Mycobacterium butyricum in light mineral oil. After 11 days, the animals which had developed an arthritic condition were selected and given daily oral doses of test drug for 4 days. Paw volumes were measured and the percent inhibition of the noninjected hind paw as compared to controls was calculated. The results (Table I) are expressed as ED50 (mg/kg/day).

[2] = gastric ulceration test (ability to induce gastric ulceration, 4 days oral dosing); conditions: in vivo; for selectivity ratio: therapeutic index in respect to gastric ulceration, * = significantly different from parent compound p ≤0.05, read-out: AII (antiinflammatory index, UD50/ED50)
Description: In addition to their antiinflammatory activity, the compounds were evaluated for their ability to induce gastric ulceration since gastric irritation is the most significant side effect following administration of prostaglandin biosynthesis inhibitors. As described by Wong et al., the dose (UD50 mg/kg/day) required to produce 50 percent ulcerogenic response following 4 days of oral dosing with test drug was determined. The results are shown in Table I. As described by Wong et al., a therapeutic index in respect to gastric ulceration, the "antiinflammatory index (AII)" defined as UD50 /ED50, was determined.

[3] = test system: prostaglandin biosynthesis; conditions: cited from earlier work
[4] = in vivo; cited from earlier work

Row | SMILES | ED50 ([1]; 96 h, read-out: ED50) [mg/kg] | TD50 at 96 h [2] [mg/kg] | selectivity ratio [2] | ED50 [1] [mg/kg/day] | AII (antiinflammatory index, UD50/ED50) [2] | UD50 ([2]; 96 h) [mg/kg/day] | mode of action (in words) [3] | side effect (in words) [4]
1 | Cc1cc(CC(=O)NCC(=O)O)n(C)c1C(=O)c1ccc(Cl)cc1 [Example VII, N-{[5-(4-chlorobenzoyl)-1,4-dimethyl-1H-pyrrol-2-yl]-acetyl}-glycine] | 0.61 | 21.1 | 34.4 | – | – | – | – | –
2 | Cc1cc(CC(=O)NC(C)C(=O)O)n(C)c1C(=O)c1ccc(Cl)cc1 (centres unmarked) [VIII (1), N--{[5-(4-chlorobenzoyl)-1,4-dimethyl-1H--pyrrol-2-yl]-acetyl}-alanine] | 0.67 | 25.4 | 37.6 | – | – | – | – | –
3 | CSCCC(NC(=O)Cc1cc(C)c(C(=O)c2ccc(Cl)cc2)n1C)C(=O)O (centres unmarked) [VIII (2), N--{[5-(4-chlorobenzoyl)-1,4-dimethyl-1H--pyrrol-2-yl]-acetyl}-methionine] | 0.93 | 43.7 | 46.9 | – | – | – | – | –
4 | Cc1cc(CC(=O)N[C@@H](CCC(=O)O)C(=O)O)n(C)c1C(=O)c1ccc(Cl)cc1 [VIII (3), N--{[5-(4-chlorobenzoyl)-1,4-dimethyl-1H--pyrrol-2-yl]-acetyl}-glutamic acid] | – | – | – | 0.54 | 68.9 | 37.0 | – | –
5 | Cc1cc(CC(=O)NC(CC(=O)O)C(=O)O)n(C)c1C(=O)c1ccc(Cl)cc1 (centres unmarked) [VIII (4), N--{[5-(4-chlorobenzoyl)-1,4-dimethyl-1H--pyrrol-2-yl]-acetyl}-aspartic acid] | 0.76 | 71 | 93.1 | – | – | – | – | –
6 | Cc1cc(CC(=O)NC(CCCCN)C(=O)O)n(C)c1C(=O)c1ccc(Cl)cc1 (centres unmarked) [X, N^2 -{[5-(4-chlorobenzoyl)-1,4-dimethyl-1H-pyrrol-2-yl]-acetyl}-lysine-hydrate(5:8)] | 0.64 | 35.1 | 54.8 | – | – | – | – | –
7 | Cc1cc(CC(=O)N[C@@H](CCC(N)=O)C(=O)O)n(C)c1C(=O)c1ccc(Cl)cc1 [XI, N-{[5-(4-chlorobenzoyl)-1,4-dimethyl-1H-pyrrol-2-yl]-acetyl}-glutamine] | 0.72 | 33.4 | 46.5 | – | – | – | – | –
8 | Cc1cc(CC(=O)O)n(C)c1C(=O)c1ccc(Cl)cc1 [zomepirac, [5-(4-chlorobenzoyl)-1,4-dimethyl-1H-pyrrol-2-yl]acetic acid, reference compound] | 0.51 | 13.8 | 27.2 | – | – | – | inhibition of prostaglandin biosynthesis | gastrointestinal irritation
